# Data taken from patent US9169268B2, “Use of 7-alkoxy fangchinoline compounds in preventing, alleviating and/or treating depression” (Peking University, priority 2012, dated 2015).
# How the values were obtained:
# [1] = target: GSK-3β (Homo sapiens, UniProt P49841); assay: GSK-3β activity assay (Z′-LYTE); type: biochemical; settings: n = 3; read-out: Mean EC50 in the inhibition of GSK-3β activity
# Protocol: The GSK-3β phosphorylation level was determined by using a Z′-LYTE assay (Life Technologies). The assay was performed in a 384-well plate. The wells of the testing plate were divided into blank control wells (without the enzyme), enzyme control wells (without the testing substance), and testing wells (with the enzyme and the testing substance at various concentrations). The inhibition rate of the testing substance is expressed as: inhibition %=(E−S)/(E−B)×100, wherein E is the average emission ratio of enzyme control wells; B is the average emission ratio of blank control wells; S is the emission ratio of the testing sample wells. The median effective concentration of each compound (EC50 μM) was calculated by using the resultant inhibition rate of each sample at various concentrations.
# [2] = tested on: chronic unpredictable stress (CUS) model in rats; assay: Forced swimming test in chronic unpredictable stress (CUS) model in rats; type: in vivo; settings: 7 days
# Protocol: (§1) The chronic unpredictable stress model is usually used as a depression model. The experimental method is as follows. Stimulation includes forced swimming (10° C., 6 min), tail clamping (1 cm from the tail tip, 1 min), water deprivation (24 h), fasting (24 h), isolated housing (24 h), tail suspension (1 h), immobility (2 h), high-speed horizontal oscillation (120 times/min, 1 h), foot shock for 45 minutes (mean 1 mA, time course 1 s, once/min). These stressors were randomly scheduled over a one-week period and repeated throughout the 23-day experiment. The non-stress control group was housed under normal conditions. Time: between 9:00 a.m. and 2:00 p.m. Since Day 15, the animals in each group were daily intragastrically administered with the subject medicament and double distilled water based on body weight (blank group and CUS model group) respectively, 60 minutes before the stress. […] Behavior and sleep electroencephalogram analyses were carried out on Day 22-23 of the stress. On Day 21, 60 minutes after the final administration, a sucrose solution intake test was carried out and sleep electroencephalogram was recorded simultaneously. On Day 22, EPM and forced swimming tests were carried out.
# [3] = tested on: chronic unpredictable stress (CUS) model in rats; assay: Sucrose solution preference in CUS model in rats; type: in vivo; settings: 7 days
# Protocol: as §1
# [4] = tested on: chronic unpredictable stress (CUS) model in rats; assay: Autonomous movement in CUS model in rats; type: in vivo; settings: 7 days
# Protocol: as §1
# [5] = tested on: chronic unpredictable stress (CUS) model in rats; assay: Elevated plus-maze (EPM) anxiety test in CUS model in rats; type: in vivo; settings: for anti-anxiety-like effect: doses of 30 and 60 mg/kg
# Protocol: as §1
# [6] = tested on: chronic unpredictable stress (CUS) model in rats; assay: Depression-like behaviors overall in CUS model in rats (forced swimming, sucrose preference, autonomous mobility); type: in vivo; settings: doses of 30 and 60 mg/kg
# Text: The chronic unpredictable stress model is usually used as a depression model. The experimental method is as follows. […] These stressors were randomly scheduled over a one-week period and repeated throughout the 23-day experiment. The non-stress control group was housed under normal conditions. Time: between 9:00 a.m. and 2:00 p.m. Since Day 15, the animals in each group were daily intragastrically administered with the subject medicament and double distilled water based on body weight (blank group and CUS model group) respectively, 60 minutes before the stress. Imipramine (intraperitoneally, IP) was adopted as a positive control. Behavior and sleep electroencephalogram analyses were carried out on Day 22-23 of the stress. On Day 21, 60 minutes after the final administration, a sucrose solution intake test was carried out and sleep electroencephalogram was recorded simultaneously. On Day 22, EPM and forced swimming tests were carried out. Result 1: […]
# [7] = Serum AST and ALT in mice after 14 days of intragastric administration; type: in vivo; settings: mouse, in vivo, 60 mg/kg/day
# Protocol: Blood was collected from epicanthal, stood at room temperature for about 2 hours, and centrifuged for 12 minutes at 3000 r/min after coagulation. The serum was removed and centrifuged again. Alanine transaminase (ALT) and aspartate transaminase (AST) levels were determined
# Chain of GSK-3β (P49841 whole entry): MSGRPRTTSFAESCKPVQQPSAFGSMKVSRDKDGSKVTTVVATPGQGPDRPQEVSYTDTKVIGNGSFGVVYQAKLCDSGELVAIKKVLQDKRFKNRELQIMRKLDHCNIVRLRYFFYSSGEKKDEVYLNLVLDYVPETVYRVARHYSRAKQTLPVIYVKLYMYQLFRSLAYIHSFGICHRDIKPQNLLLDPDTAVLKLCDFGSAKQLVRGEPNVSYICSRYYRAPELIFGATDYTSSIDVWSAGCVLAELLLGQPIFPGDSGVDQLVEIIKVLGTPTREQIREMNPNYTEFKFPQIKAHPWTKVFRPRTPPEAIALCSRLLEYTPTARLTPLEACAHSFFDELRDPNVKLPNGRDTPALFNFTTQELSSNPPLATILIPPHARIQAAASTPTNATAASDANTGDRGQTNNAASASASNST
Molecule,EC50 [1],Forced swimming Immobility time ([2]; 30 mg/kg intragastric daily),Forced swimming Immobility time ([2]; 60 mg/kg intragastric daily),Sucrose solution preference ([3]; 30 mg/kg intragastric daily),Sucrose solution preference ([3]; 60 mg/kg intragastric daily),Autonomous movement Distance ([4]; 30 mg/kg intragastric daily),Autonomous movement Speed ([4]; 30 mg/kg intragastric daily),Autonomous movement Distance ([4]; 60 mg/kg intragastric daily),Autonomous movement Speed ([4]; 60 mg/kg intragastric daily),Percentage of entries into open arms relative to total entries into arms ([5]; 30 mg/kg intragastric daily),Percentage of residence time in open arms ([5]; 30 mg/kg intragastric daily),Percentage of entries into open arms relative to total entries into arms ([5]; 60 mg/kg intragastric daily),Percentage of residence time in open arms ([5]; 60 mg/kg intragastric daily),anti-anxiety-like effect [5],amelioration effect on depression-like behaviors [6],Sucrose solution preference ([3]; 7.5 mg/kg intragastric daily),Sucrose solution preference ([3]; 15 mg/kg intragastric daily),Autonomous movement Distance ([4]; 7.5 mg/kg intragastric daily),Autonomous movement Speed ([4]; 7.5 mg/kg intragastric daily),Autonomous movement Distance ([4]; 15 mg/kg intragastric daily),also measured
12-(4-ethoxy)-butoxyberbamine [reference compound],> 10000 nM,179.5 ± 6.3 s,175.3 ± 8.4 s,54.19 ± 4.45%,53.27 ± 3.55%,1367.52 ± 683.88 mm,4.56 ± 1.74 mm/second,935.73 ± 586.51 mm,3.12 ± 1.31 mm/second,36.6 ± 1.7%,40.1 ± 4.5%,37.2 ± 1.3%,39.2 ± 3.5%,no anti-anxiety-like effect,no amelioration effect,,,,,,
12-acetoxyberbamine [reference compound],> 10000 nM,179.2 ± 6.6 s,169.9 ± 7.4 s,54.29 ± 3.74%,53.34 ± 3.04%,984.41 ± 542.67 mm,3.28 ± 1.35 mm/second,1135.49 ± 575.54 mm,3.78 ± 1.46 mm/second,38.2 ± 1.8%,41.9 ± 3.7%,36.8 ± 1.6%,43.3 ± 3.4%,no anti-anxiety-like effect,no amelioration effect,,,,,,
"COc1ccc2cc1Oc1ccc(cc1)CC1c3cc(c(OC)cc3CCN1C)Oc1c(OC)c(OC)c(OC)c3c1C(C2)N(C)CC3 (centres unmarked) [5,7-dimethoxy-fangchinoline, reference compound]",> 10000 nM,,,53.7 ± 4.8%,55.3 ± 4.2%,1189.64 ± 315.84 mm,3.97 ± 1.48 mm/second,936.47 ± 366.32 mm,3.12 ± 1.42 mm/second,38.9 ± 1.8%,43.2 ± 4.1%,37.2 ± 1.4%,42.8 ± 4.8%,no anti-anxiety-like effect,no amelioration effect,,,,,,
"CCCOc1c(OC)cc2c3c1Oc1cc4c(cc1OC)CCN(C)C4Cc1ccc(cc1)Oc1cc(ccc1OC)CC3N(C)CC2 (centres unmarked) [Compound 6, 7-propoxy fangchinoline]",1680 nM,,,"90.4 ± 4.3^##,$$ %",,"12566.27 ± 764.42^##,$$ mm","41.89 ± 4.36^##,$$ mm/second",,,"57.3 ± 4.6^##,$$ %","66.0 ± 4.2^##,$$ %",,,,,79.45 ± 3.3 %,"85.5 ± 3.6^##,$$ %","8940.78 ± 714.35^##,$$ mm","29.80 ± 2.64^##,$$ mm/second","11574.92 ± 732.36^##,$$ mm","Autonomous movement Speed ([4]; 15 mg/kg intragastric daily): 38.58 ± 3.02^##,$$ mm/second; Percentage of entries into open arms relative to total entries into arms ([5]; 7.5 mg/kg intragastric daily): 47.0 ± 2.6 %; Percentage of residence time in open arms ([5]; 7.5 mg/kg intragastric daily): 59.4 ± 3.3^##,$$ %; Percentage of entries into open arms relative to total entries into arms ([5]; 15 mg/kg intragastric daily): 50.5 ± 3.2 %; Percentage of residence time in open arms ([5]; 15 mg/kg intragastric daily): 64.1 ± 3.6^##,$$ %; ALT [7]: 92.3 ± 21.2 U/L; AST [7]: 99.4 ± 21.1 U/L; AST/ALT [7]: 1.08 ± 0.27; melting point: 174.8 to 176.3 °C"
"CCCCOc1c(OC)cc2c3c1Oc1cc4c(cc1OC)CCN(C)C4Cc1ccc(cc1)Oc1cc(ccc1OC)CC3N(C)CC2 (centres unmarked) [Compound 7, 7-butoxy fangchinoline]",2330 nM,,,"86.3 ± 3.4^##,$$ %",,"11768.25 ± 903.41^##,$$ mm","39.23 ± 5.36^##,$$ mm/second",,,"54.3 ± 5.6^##,$ %","61.5 ± 3.0^##,$$ %",,,,,70.7 ± 4.1 %,87.1 ± 3.5 %,"8823.36 ± 673.14^##,$$ mm","29.41 ± 2.64^##,$$ mm/second","9586.43 ± 756.75^##,$$ mm","Autonomous movement Speed ([4]; 15 mg/kg intragastric daily): 31.95 ± 4.02^##,$$ mm/second; Percentage of entries into open arms relative to total entries into arms ([5]; 7.5 mg/kg intragastric daily): 43.4 ± 2.6 %; Percentage of residence time in open arms ([5]; 7.5 mg/kg intragastric daily): 54.7 ± 4.1^##,$$ %; Percentage of entries into open arms relative to total entries into arms ([5]; 15 mg/kg intragastric daily): 47.9 ± 4.0 %; Percentage of residence time in open arms ([5]; 15 mg/kg intragastric daily): 62.1 ± 3.4^##,$$ %; ALT [7]: 82.4 ± 17.9 U/L; AST [7]: 93.6 ± 17.8 U/L; AST/ALT [7]: 1.14 ± 0.20; melting point: 155 to 156 °C"
